According to PubChem BioAssay (NCI):
Where “and” joins values, the source holds several entries; their conditions need not be identical. Equal values may be shown once.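 Test compounds were applied to cells in 96-well plates for 48 hours at 5 doses. GI50: concentration for 50% inhibition of growth. Definition used: TGI = concentration required for complete inhibition of growth.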

Columns and labels:
Assay in all cases: NCI-60 cell line screen, 48 h
ACHN renal = tested on: ACHN renal
OVCAR-8 ovarian = tested on: OVCAR-8 ovarian
OVCAR-3 ovarian = tested on: OVCAR-3 ovarian
UO-31 renal = tested on: UO-31 renal
SF-539 CNS = tested on: SF-539 CNS
CAKI-1 renal = tested on: CAKI-1 renal
BT-549 breast = tested on: BT-549 breast
M14 melanoma = tested on: M14 melanoma
A549 NSCLC = tested on: A549 NSCLC
RPMI-8226 leukemia = tested on: RPMI-8226 leukemia

| Compound | GI50 (ACHN renal) | TGI (ACHN renal) | GI50 (OVCAR-8 ovarian) | TGI (OVCAR-8 ovarian) | GI50 (OVCAR-3 ovarian) | TGI (OVCAR-3 ovarian) | GI50 (UO-31 renal) | TGI (UO-31 renal) | GI50 (SF-539 CNS) | TGI (SF-539 CNS) | GI50 (CAKI-1 renal) | TGI (CAKI-1 renal) | GI50 (BT-549 breast) | TGI (BT-549 breast) | GI50 (M14 melanoma) | TGI (M14 melanoma) | GI50 (A549 NSCLC) | TGI (A549 NSCLC) | GI50 (RPMI-8226 leukemia) | TGI (RPMI-8226 leukemia) |
| --- | --- | --- | --- | --- | --- | --- | --- | --- | --- | --- | --- | --- | --- | --- | --- | --- | --- | --- | --- | --- |
| COc1ccc2c(c1)OC1=C(C(=O)OC1)C2c1cc(OC)c2c(c1)OCCO2 (stereo not drawn) | 0.122 µM | > 100 µM | 0.0712 µM | > 100 µM | 0.0285 µM | 0.0714 µM | 0.071 µM | > 100 µM | 0.048 µM | > 100 µM | 0.0411 µM | > 100 µM | 0.131 µM | 28.8 µM | 0.0566 µM | > 100 µM | 0.0603 µM | > 100 µM | 0.0871 µM | > 100 µM |
| CCN(CC)CCNC(Cc1ccccc1)c1ccc(OCc2ccccc2)cc1 (stereo not drawn) | 7.85 µM | 21.6 µM | 10.7 µM | 24.4 µM | 11.8 µM | 25.8 µM | 2.53 µM | 14.7 µM | 5.26 µM | 18.6 µM | 4.52 µM | 16.7 µM | 3.55 µM | 18.7 µM | 2.07 µM | 5.09 µM | 7.74 µM | 22 µM | 2.4 µM | 6.84 µM |
| C=C(C)[C@@H]1CC[C@]2(COCCCN)CC[C@]3(C)[C@H](CC[C@@H]4[C@@](C)(CCCNCCCN)[C@H](C(=C)C)CC[C@]43C)[C@@H]12 | 1.75 µM | 3.13 µM | 1.91 µM | 3.61 µM | 1.81 µM | 3.36 µM | 1.43 µM | 2.77 µM | 1.76 µM | 3.21 µM | 1.75 µM | 3.13 µM | 10.6 µM | 29.6 µM | 1.9 µM | 3.62 µM | 1.89 µM | 3.63 µM | 2.2 µM | 5.08 µM |
| O=C(Oc1ccc[nH]c1=O)c1cc([N+](=O)[O-])cc([N+](=O)[O-])c1 | 93.3 µM | > 100 µM | > 100 µM | > 100 µM | > 100 µM | > 100 µM | 23.6 µM | > 100 µM | > 100 µM | > 100 µM | 35.7 µM | > 100 µM | > 100 µM | > 100 µM | > 100 µM | > 100 µM | > 100 µM | > 100 µM | > 100 µM | > 100 µM |
| CNC(=O)OCc1nc(SSC(C)(C)C)n(C)c1COC(=O)NC | – | 8.71 µM | – | 5.35 µM | – | 4.81 µM | – | 20.3 µM | – | 10.6 µM | – | 3.94 µM | – | 2.83 µM | – | 4.13 µM | – | 28 µM | – | 8.92 µM |
| O=C1C(=O)c2ccccc2C(O)=C1C(C1=C(O)c2ccccc2C(=O)C1=O)c1ccc(Cl)cc1 | – | 17 µM | – | 30.1 µM | – | 11.4 µM | – | 24.5 µM | – | 32.9 µM | – | 23.8 µM | – | 32.7 µM | – | 23.7 µM | – | 42.2 µM | – | > 39.2 µM |
| O=C(O)c1ccc(CN2CCC(CN[C@@H]3C[C@H]3c3ccccc3)CC2)cc1 | > 100 µM | > 100 µM | > 100 µM | > 100 µM | > 100 µM | > 100 µM | > 100 µM | > 100 µM | > 100 µM | > 100 µM | > 100 µM | > 100 µM | > 100 µM | > 100 µM | > 100 µM | > 100 µM | > 100 µM | > 100 µM | > 100 µM | > 100 µM |
| CCN(CC)CCCC(CCl)Nc1ccnc2cc(Cl)ccc12 (stereo not drawn) | 36 µM and 6.74 µM | > 100 µM | 20.2 µM and 19.4 µM | 54.8 µM and 71.3 µM | 10.9 µM and 6.23 µM | 34.7 µM and 28 µM | 16.6 µM and 21.5 µM | 37 µM and > 100 µM | 10.7 µM and 11.4 µM | 24.8 µM and 27.5 µM | 22.1 µM and 16.2 µM | 47.5 µM and 44.8 µM | 22.4 µM and 15.2 µM | 60.2 µM and 49.1 µM | 2.13 µM and 2.39 µM | 4.38 µM and 4.92 µM | 20 µM and 27 µM | 55 µM and > 100 µM | 12.2 µM | 34.4 µM |
| CCN1C(=O)c2ccc3c4c(ccc(c24)C1=O)C(=O)N(CCCNCc1ccccc1OC)C3=O | 0.553 µM | 4.63 µM | 0.438 µM | 2.87 µM | 0.335 µM | 1.04 µM | 1.39 µM | 3.58 µM | 1.16 µM | 2.47 µM | 0.791 µM | 2.47 µM | 1.48 µM | 2.94 µM | 0.69 µM | 2.1 µM | 0.78 µM | 2.49 µM | 1.64 µM | 5.53 µM |
| Cc1nnc(-c2ccc(C)c(-c3ccc(C(=O)Nc4cccc(C#N)c4)cc3)c2)o1 | > 25 µM | > 25 µM | > 25 µM | > 25 µM | > 25 µM | > 25 µM | > 25 µM | > 25 µM | > 25 µM | > 25 µM | > 25 µM | > 25 µM | > 25 µM | > 25 µM | > 25 µM | > 25 µM | > 25 µM | > 25 µM | > 25 µM | > 25 µM |
| CCN1C(=O)/C(=C/c2c(Cl)[nH]c3cc(C)c(OC)cc23)c2ccccc21 | 9.36 µM | > 100 µM | 4.29 µM | > 100 µM | 2.6 µM | 8.37 µM | 2.87 µM | > 100 µM | 0.251 µM | 0.52 µM | 5.45 µM | > 100 µM | 0.5 µM | 6.31 µM | 4.42 µM | 53.9 µM | 2.84 µM | > 100 µM | 2.7 µM | 24.1 µM |
| CC1(C)N=C(N)N=C(N)N1c1ccc(CCC(=O)Nc2ccc(S(=O)(=O)F)cc2)c(Cl)c1 | 5.37 µM | > 100 µM | 4.66 µM | > 100 µM | 9.86 µM | > 100 µM | 63.6 µM | > 100 µM | 0.509 µM | > 38.7 µM | 7.73 µM | > 81.1 µM | 0.995 µM | > 100 µM | 0.762 µM | > 100 µM | 0.517 µM | > 100 µM | 0.515 µM | > 100 µM |
| CN(c1ccc(NC(=O)Nc2c(Cl)cccc2Cl)cc1)c1ccnc(Nc2cccc(CS(C)(=O)=O)c2)n1 | 3.48 µM | 8.79 µM | 2.31 µM | 6.82 µM | 1.65 µM | 5.2 µM | 4.28 µM | 13.3 µM | 0.304 µM | 6.4 µM | 4.53 µM | 21 µM | 3.3 µM | 8.15 µM | 2.64 µM | 11.6 µM | 1.65 µM | 7.66 µM | 3.68 µM | > 22.7 µM |
| O=NNc1ccc2ccccc2n1 | – | > 100 µM | – | > 100 µM | – | > 100 µM | – | > 100 µM | – | > 100 µM | – | > 100 µM | – | > 100 µM | – | > 100 µM | – | > 100 µM | – | > 100 µM |
| CCCCCCCCn1ccc2cc(NC(=O)Cn3cc(CN4CCCCCC4)nn3)ccc21 | 1.73 µM | 3.11 µM | 1.87 µM | 3.73 µM | 1.73 µM | 3.24 µM | 1.48 µM | 2.81 µM | 1.76 µM | 3.21 µM | 1.49 µM | 2.89 µM | 1.72 µM | 3.32 µM | 1.67 µM | 3.23 µM | 1.77 µM | 3.36 µM | 1.94 µM | 4.31 µM |
| CCCCCCCCCCCCCCCCCCOC[C@H](COP(=O)(O)O[C@H]1[C@H](O)[C@@H](O)[C@H](O)C[C@H]1O)OC | > 100 µM and 16.3 µM | > 100 µM and 30 µM | > 100 µM and 16.9 µM | > 100 µM and 31.8 µM | > 100 µM and 16.9 µM | > 100 µM and 34.9 µM | > 100 µM | > 100 µM and 22.1 µM | > 100 µM and 16.2 µM | > 100 µM and 31 µM | 87.4 µM and 9.51 µM | > 100 µM and 25.1 µM | > 100 µM and 15.9 µM | > 100 µM and 30.4 µM | > 100 µM and 12 µM | > 100 µM and 24.7 µM | > 100 µM and 15 µM | > 100 µM and 28.8 µM | – | 79.7 µM and 30.7 µM |
| C[C@]12CCc3sc(Nc4ccc(OC(F)(F)F)cc4)nc3C1=CC[C@@H]1[C@@H]2CC[C@]2(C)C(=O)CC[C@@H]12 | 3.27 µM | 10.8 µM | 3.49 µM | 25 µM | 1.94 µM | 4.14 µM | 2.06 µM | 4.73 µM | 1.05 µM | 2.72 µM | 3.21 µM | 13.2 µM | 1.78 µM | 7.42 µM | 3.29 µM | 8.72 µM | 3.35 µM | 16.1 µM | 1.02 µM | 3.77 µM |
| O=c1[nH]c2ccccc2cc1-c1nc2ccc(Cl)cc2[nH]1 | 2.45 µM | > 100 µM | 6.51 µM | > 100 µM | 2.37 µM | 7.25 µM | 3.31 µM | > 100 µM | 4.13 µM | 17.2 µM | 1.02 µM | > 100 µM | 2.99 µM | > 100 µM | 2.86 µM | > 100 µM | 5.15 µM | > 100 µM | 1.42 µM | 6.78 µM |
| COc1ccc2c(c1)NC1=C(C(=O)OC1)C2c1cc(OC)c(OC)c(OC)c1 (stereo not drawn) | < 0.01 µM | > 100 µM | < 0.01 µM | > 100 µM | < 0.01 µM | < 0.01 µM | – | > 100 µM | < 0.01 µM | 18.6 µM | < 0.0127 µM | > 100 µM | < 0.01 µM | < 0.01 µM | < 0.01 µM | > 100 µM | < 0.01 µM | > 100 µM | < 0.01 µM | > 100 µM |
